The record followed here is patent US7153813B2, “Substituted aryl ketones” (Bayer Aktiengesellschaft, priority 2002, dated 2006).

Series [1] in a line: logP determination by HPLC (EEC Directive 79/831 Annex V.A8), reverse-phase column C 18. The series is classed as physicochemical. To be noted: for chromatographic logP: reverse-phase C18 HPLC column, stated in the preparation example, read-out: Log P. Here is the method:
The logP values given in the tables were determined in accordance with EEC Directive 79/831 Annex V.A8 by HPLC (High Performance Liquid Chromatography) using a reverse-phase column (C 18). Temperature: 43° C. • (a) Mobile phases for the determination in the acidic range: 0.1% aqueous phosphoric acid, acetonitrile; linear gradient from 10% acetonitrile to 90% acetonitrile—corresponding measurement data are marked a) in Table 1. • (b) Mobile phases for the determination in the neutral range: 0.01 molar aqueous phosphate buffer solution, acetonitrile; linear gradient from 10% acetonitrile to 90% acetonitrile—the corresponding measurement data are marked b) in Table 1. The calibration was carried out using unbranched alkan-2-ones (having 3 to 16 carbon atoms) with known logP values (determination of the logP values by the retention times using linear interpolation between two successive alkanones).

The test system of series [2] is weeds. As to the kind of experiment: Pre-Emergence Test (Example A), damage to weeds. It is filed as in vivo. The conditions noted are these: soil sprayed 24 hours after sowing, rated after three weeks. Here is the method:
(§1) • Solvent: 5 parts by weight of acetone • Emulsifier: 1 part by weight of alkylaryl polyglycol ether
To produce a suitable preparation of active compound, 1 part by weight of active compound is mixed with the stated amount of solvent, the stated amount of emulsifier is added and the concentrate is diluted with water to the desired concentration.
Seeds of the test plants are sown in normal soil. After 24 hours, the soil is sprayed with the preparation of active compound such that the particular amount of active compound desired is applied per unit area. The concentration of active compound in the spray liquor is chosen such that the particular amount of active compound desired is applied in 1000 liters of water per hectare.
After three Weeks, the degree of damage to the plants is rated in % damage in comparison to the development of the untreated control. The figures denote: • 0%=no effect (like untreated control) • 100%=total destruction

In series [3] the test system is weeds. As to the kind of experiment: Post-Emergence Test (Example B), damage to weeds. The series is classed as in vivo. To be noted: test plants of 5–15 cm sprayed, rated after three weeks. The procedure:
as §1
To produce a suitable preparation of active compound, 1 part by weight of active compound is mixed with the stated amount of solvent, the stated of amount of emulsifier is added and the concentrate is diluted with water to the desired concentration.
Test plants of a height of 5–15 cm are sprayed with the preparation of active compound such that the particular amounts of active compound desired are applied per unit area. The concentration of the spray liquor is chosen such that the particular amounts of active compound desired are applied in 1000 l of water/Ha.
After three weeks, the degree of damage to the plants is rated in % damage in comparison to the development of the untreated control.
The figures denote: • 0%=no effect (like untreated control) • 100%=total destruction

[4] abbreviates: HPLC, reverse-phase C 18, 43° C., acidic range: 0.1% aqueous phosphoric acid, acetonitrile, gradient 10% to 90% (marked a)).

Each structure is given as a SMILES string. Read-outs that look alike come from different tables or passages of the source.

In the case of `Cn1ncc(C(=O)c2ccc(C(F)(F)F)cc2CS(C)(=O)=O)c1OCc1ccc(Br)cc1` [Example 8], the logP result in series [1] is listed as “logP = 3.41^a)”. Further, the “activity against weeds (degree of damage)” value (“activity against weeds” below) in the series on weeds [2] is recorded as “strong activity”.
For `CCn1ncc(C(=O)c2ccc(C(F)(F)F)cc2CS(C)(=O)=O)c1OCc1ccc(C)cc1` [Example 13] the same measures were “logP = 3.57^a)” and “strong activity”.
For `CCn1ncc(C(=O)c2ccc(C(F)(F)F)cc2CS(C)(=O)=O)c1OCC(=O)c1ccccc1` [Example 20], the “activity against weeds” value in the series with weeds [3] and in the series on weeds [2] was “strong activity” in each case. In series [1], the logP result is “logP = 3.01^a)”.
As for `Cn1ncc(C(=O)c2ccc(C(F)(F)F)cc2CS(C)(=O)=O)c1O` [Example 4], the logP result in series [1] (setting [4]) is given as “logP = 1.57^a)”. In addition, in the series with weeds [2], the “activity against weeds” value is “strong activity”.
With `CCn1ncc(C(=O)c2ccc(C(F)(F)F)cc2CS(C)(=O)=O)c1OCc1cccc(F)c1` [Example 14], the logP entry in series [1] is reported as “logP = 3.30^a)”. The “activity against weeds” value in the series with weeds [2] is listed as “strong activity”.
On to `Cn1ncc(C(=O)c2ccc(C(F)(F)F)cc2CS(C)(=O)=O)c1OCc1ccc(F)cc1` [Example 6], for which the logP entry in series [1] was “logP = 3.02^a)”. Besides, the “activity against weeds” value with weeds [2] is reported as “strong activity”.
Regarding `CC1(C)CCC(=O)C(C(=O)c2ccc(C(F)(F)F)cc2CS(C)(=O)=O)C1=O` (centres unmarked) [Example 30], the logP result in series [1] is “logP = 2.86^a)”.
As to `CCn1ncc(C(=O)c2ccc(C(F)(F)F)cc2CS(C)(=O)=O)c1OCc1ccccc1C` [Example 19], the “activity against weeds” value in the series with weeds [3] and with weeds [2] was “strong activity” in each case. In addition, the logP result in series [1] is recorded as “logP = 3.52^a)”.
`Cc1ccc(COc2c(C(=O)c3ccc(C(F)(F)F)cc3CS(C)(=O)=O)cnn2C)cc1` [Example 9]: the logP entry in series [1] was “logP = 3.26^a)”. Also, the “activity against weeds” value in the series with weeds [2] was “strong activity”.
As to `CCOC(=O)COc1c(C(=O)c2ccc(C(F)(F)F)cc2CS(C)(=O)=O)cnn1CC` [Example 25], the logP result in series [1] is given as “logP = 2.72^a)”.
As for `CCOC(=O)COc1c(C(=O)c2ccc(C(F)(F)F)cc2CS(C)(=O)=O)cnn1C` [Example 27], the logP result in series [1] was “logP = 2.44^a)”.
Turning to `CCn1ncc(C(=O)c2ccc(C(F)(F)F)cc2CS(C)(=O)=O)c1OCc1ccc(F)cc1` [Example 12], the logP result in series [1] was “logP = 3.30^a)”. In the series with weeds [2], the “activity against weeds” value was “strong activity”.
With `CCn1ncc(C(=O)c2ccc(C(F)(F)F)cc2CS(C)(=O)=O)c1OCc1ccc(Cl)cc1` [Example 10], the logP result in series [1] was “logP = 3.64^a)”. In addition, the “activity against weeds” value in the series with weeds [2] was “strong activity”.
For `CCn1ncc(C(=O)c2ccc(C(F)(F)F)cc2CS(C)(=O)=O)c1OCc1cccc(C)c1` [Example 16] the same measures were “logP = 3.57^a)” and “strong activity”.
Regarding `CCOC(=O)C(C)Oc1c(C(=O)c2ccc(C(F)(F)F)cc2CS(C)(=O)=O)cnn1CC` (centres unmarked) [Example 26], in series [1], the logP result is “logP = 3.01^a)”.
`CCn1ncc(C(=O)c2ccc(C(F)(F)F)cc2CS(C)(=O)=O)c1OCc1ccc(Br)cc1` [Example 2, [1-ethyl-5-(4-bromophenylmethoxy)-1H-pyrazol-4-yl]-(2-methylsulphonylmethyl-4-trifluoromethylphenyl)methanone]: the “activity against weeds” value in the series on weeds [3] and with weeds [2] was “strong activity” throughout. For the same compound, the logP result in series [1] (setting [4]) was “logP = 3.76^a)”. The chromatographic logP in series [1] was 3.76.
`CCn1ncc(C(=O)c2ccc(C(F)(F)F)cc2CS(C)(=O)=O)c1OCc1ccccc1Cl` [Example 18]: the “activity against weeds” value in the series on weeds [3] and with weeds [2] was “strong activity” in each case. Further, in series [1], the logP result is on record as “logP = 3.56^a)”.
With `C#CCOc1c(C(=O)c2ccc(C(F)(F)F)cc2CS(C)(=O)=O)cnn1CC` [Example 24], the logP result in series [1] is on record as “logP = 2.59^a)”.
Consider `C#CCOc1c(C(=O)c2ccc(C(F)(F)F)cc2CS(C)(=O)=O)cnn1C` [Example 29], for which, in series [1], the logP result was “logP = 2.30^a)”.
Regarding `Cn1ncc(C(=O)c2ccc(C(F)(F)F)cc2CS(C)(=O)=O)c1OCc1ccccc1` [Example 5], the “activity against weeds” value with weeds [3] and in the series with weeds [2] was “strong activity” throughout. Also, the logP result in series [1] is on record as “logP = 2.94^a)”.
For the compound `CCn1ncc(C(=O)c2ccc(C(F)(F)F)cc2CS(C)(=O)=O)c1OCc1ccccc1` [Example 11], the logP entry in series [1] was “logP = 3.26^a)”. In addition, in the series on weeds [2], the “activity against weeds” value is listed as “strong activity”.
As for `CCSCc1cc(C(F)(F)F)ccc1C(=O)c1cnn(CC)c1O` [Example 32], in series [1] (setting [4]), the logP entry is “logP = 3.36^a)”.
Take `CCn1ncc(C(=O)c2ccc(C(F)(F)F)cc2CS(C)(=O)=O)c1OS(C)(=O)=O` [Example 23]: the “activity against weeds” value in the series on weeds [3] and with weeds [2] was “strong activity” throughout. Further, the logP entry in series [1] is given as “logP = 2.50^a)”.
For the compound `CCn1ncc(C(=O)c2ccc(C(F)(F)F)cc2CS(C)(=O)=O)c1OC(=O)c1ccccc1` [Example 21], the logP entry in series [1] is reported as “logP = 3.07^a)”. Besides, the “activity against weeds” value with weeds [2] is listed as “strong activity”.
Turning to `CCn1ncc(C(=O)c2ccc(C(F)(F)F)cc2CS(C)(=O)=O)c1OCc1ccccc1F` [Example 17], in series [1], the logP result is given as “logP = 3.29^a)”. Moreover, the “activity against weeds” value with weeds [2] is given as “strong activity”.
For `CCn1ncc(C(=O)c2ccc(C(F)(F)F)cc2CS(C)(=O)=O)c1OCc1cccc(Cl)c1` [Example 15] the same measures were “logP = 3.60^a)” and “strong activity”.
`Cn1ncc(C(=O)c2ccc(C(F)(F)F)cc2CS(C)(=O)=O)c1OCc1ccc(Cl)cc1` [Example 7]: the logP entry in series [1] is recorded as “logP = 3.32^a)”. For the same compound, the “activity against weeds” value with weeds [2] is on record as “strong activity”.
Regarding `CS(=O)(=O)Cc1cc(C(F)(F)F)ccc1C(=O)C1=C(Cl)CCCC1=O` [Example 33], the logP result in series [1] is “logP = 2.42^a)”.
Consider `CCn1ncc(C(=O)c2ccc(C(F)(F)F)cc2CS(C)(=O)=O)c1OS(=O)(=O)c1ccc(C)cc1` [Example 22], for which the logP result in series [1] (setting [4]) is “logP = 3.39^a)”. For the same compound, the “activity against weeds” value in the series on weeds [2] is given as “strong activity”.
In the case of `CCOC(=O)C(C)Oc1c(C(=O)c2ccc(C(F)(F)F)cc2CS(C)(=O)=O)cnn1C` (centres unmarked) [Example 28], the logP entry in series [1] was “logP = 2.70^a)”.
Take `CCn1ncc(C(=O)c2ccc(C(F)(F)F)cc2CS(C)(=O)=O)c1O` [Example 1, (1-ethyl-5-hydroxy-1H-pyrazol-4-yl)-(2-methylsulphonylmethyl-4-trifluoromethylphenyl)methanone]: the “activity against weeds” value in the series on weeds [3] and in the series on weeds [2] was “strong activity” each time. For the same compound, the logP entry in series [1] (setting [4]) was “logP = 1.88^a)”. Further, the chromatographic logP in series [1] amounted to 1.88.
